# Measurements: PubChem BioAssay AID328 (DTP/NCI, 2004)
# Where “and” joins values, the source holds several entries; their conditions need not be identical. Identical values can stand only once. Inconclusive results and toxic doses are left out.
# Tested on: BDF1 mice, P388 leukemia ip, median survival T/C
# Assay: NCI In Vivo Anticancer Drug Screen. Data for tumor model P388 Leukemia (intraperitoneal) in B6D2F1 (BDF1) mice
# Settings: endpoint: median survival time, higher = longer survival
# Outline: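 Read-out is survival of treated animals expressed relative to the vehicle group, as a T/C ratio.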
# [1] = dose: 33.0 mg/kg/injection, schedule: Q04DX003 (ip), vehicle: saline
# [2] = dose: 50.0 mg/kg/injection, schedule: Q04DX003 (ip), vehicle: saline
# [3] = dose: 75.0 mg/kg/injection, schedule: Q04DX003 (ip), vehicle: saline
# [4] = dose: 100.0 mg/kg/injection, schedule: Q01DX001 (ip), vehicle: saline
# [5] = dose: 50.0 mg/kg/injection, schedule: Q01DX009 (ip), vehicle: saline with Tween-80
# [6] = dose: 100.0 mg/kg/injection, schedule: Q01DX009 (ip), vehicle: saline with Tween-80
# [7] = dose: 200.0 mg/kg/injection, schedule: Q01DX009 (ip), vehicle: saline with Tween-80
# [8] = dose: 100.0 mg/kg/injection, schedule: Q04DX003 (ip), vehicle: saline with Tween-80
# [9] = dose: 200.0 mg/kg/injection, schedule: Q04DX003 (ip), vehicle: saline with Tween-80
# [10] = dose: 400.0 mg/kg/injection, schedule: Q04DX003 (ip), vehicle: saline with Tween-80
# [11] = dose: 100.0 mg/kg/injection, schedule: Q01DX009 (ip), vehicle: Klucel (hydroxypropylcellulose) (HPC)
# [12] = dose: 200.0 mg/kg/injection, schedule: Q01DX009 (ip), vehicle: Klucel (hydroxypropylcellulose) (HPC)
# [13] = dose: 50.0 mg/kg/injection, schedule: Q04DX003 (ip), vehicle: saline with Tween-80
# [14] = dose: 50.0 mg/kg/injection, schedule: Q01DX009 (ip), vehicle: Klucel (hydroxypropylcellulose) (HPC)
smiles,measurement,setting,value
CC[C@](O)(C(=O)O)c1cc2n(c(=O)c1CO)Cc1cc3ccccc3nc1-2,T/C,"dose: 1.0 mg/kg/injection, schedule: Q01DX009 (ip), vehicle: water",112 % of control
same,T/C,"dose: 2.0 mg/kg/injection, schedule: Q01DX009 (ip), vehicle: saline",156 % of control
same,T/C,"dose: 2.0 mg/kg/injection, schedule: Q01DX009 (ip), vehicle: water",150 % of control
same,T/C,"dose: 3.13 mg/kg/injection, schedule: Q04DX002 (ip), vehicle: saline",116 % of control
same,T/C,"dose: 4.0 mg/kg/injection, schedule: Q01DX009 (ip), vehicle: saline",171 % of control
same,T/C,"dose: 12.5 mg/kg/injection, schedule: Q04DX002 (ip), vehicle: saline",161 % of control
same,T/C,"dose: 12.5 mg/kg/injection, schedule: Q04DX009 (ip), vehicle: saline",192 % of control
same,T/C,"dose: 14.4 mg/kg/injection, schedule: Q04DX003 (ip), vehicle: saline",175 % of control
same,T/C,"dose: 18.0 mg/kg/injection, schedule: Q04DX003 (ip), vehicle: saline",175 % of control
same,T/C,"dose: 24.0 mg/kg/injection, schedule: Q04DX003 (ip), vehicle: saline",214 % of control
same,T/C,"dose: 25.0 mg/kg/injection, schedule: Q04DX002 (ip), vehicle: saline",199 % of control
same,T/C,"dose: 25.0 mg/kg/injection, schedule: Q04DX009 (ip), vehicle: saline",192 % of control
same,T/C,"dose: 30.0 mg/kg/injection, schedule: Q04DX003 (ip), vehicle: saline",201 % of control
same,T/C,[1],168 % of control
same,T/C,"dose: 40.0 mg/kg/injection, schedule: Q04DX003 (ip), vehicle: saline",224 % of control
same,T/C,"dose: 40.0 mg/kg/injection, schedule: Q04DX003 (ip), vehicle: water",104 % of control
same,T/C,[2],172 % of control
same,T/C,"dose: 66.7 mg/kg/injection, schedule: Q04DX003 (ip), vehicle: saline",90 % of control
same,T/C,[3],200 % of control
same,T/C,[4],172 % of control
same,T/C,"dose: 150.0 mg/kg/injection, schedule: Q01DX001 (ip), vehicle: saline",43 % of control
same,T/C,"dose: 175.0 mg/kg/injection, schedule: Q01DX001 (ip), vehicle: saline",90 % of control
CCN(CC)c1cc(=S)c2c(ccc3ccccc32)o1,T/C,[5],100 % of control
same,T/C,[6],106 % of control
same,T/C,[7],103 % of control
CCCCCCCCCCCC[N+]1([O-])CCCC1,T/C,"dose: 12.5 mg/kg/injection, schedule: Q01DX009 (ip), vehicle: saline",100 % of control
same,T/C,"dose: 25.0 mg/kg/injection, schedule: Q01DX009 (ip), vehicle: saline",93 % of control
same,T/C,"dose: 50.0 mg/kg/injection, schedule: Q01DX009 (ip), vehicle: saline",87 % of control
Cc1nc2ccc3nc(N)nc(N)c3c2nc1C,T/C,"dose: 50.0 mg/kg/injection, schedule: Q01DX001 (ip), vehicle: saline with Tween-80",104 % of control
same,T/C,"dose: 100.0 mg/kg/injection, schedule: Q01DX001 (ip), vehicle: saline with Tween-80",101 % of control
same,T/C,"dose: 200.0 mg/kg/injection, schedule: Q01DX001 (ip), vehicle: saline with Tween-80",111 % of control
COC(=O)C(CSCSC)NC(=O)Nc1ccc(F)cc1 (centres undefined),T/C,[6],100 % of control
same,T/C,[8],100 % of control
same,T/C,[7],100 % of control
same,T/C,[9],95 % of control
same,T/C,"dose: 400.0 mg/kg/injection, schedule: Q01DX009 (ip), vehicle: saline with Tween-80",109 % of control
same,T/C,[10],90 % of control
CCCCCCCCCCNC1CC(OC2CC(O)(C(C)=O)Cc3c(O)c4c(c(O)c32)C(=O)c2c(OC)cccc2C4=O)OC(C)C1O (centres undefined),T/C,"dose: 3.13 mg/kg/injection, schedule: Q01DX009 (ip), vehicle: water",108 % of control
same,T/C,"dose: 6.25 mg/kg/injection, schedule: Q01DX009 (ip), vehicle: water",103 % of control
CCCCCCCCC(C(=O)c1ccccc1)C(O)(C(F)(F)F)C(F)(F)F (centres undefined),T/C,[5],90 % of control
same,T/C,[6],95 % of control
same,T/C,[8],95 % of control
same,T/C,[7],109 % of control
same,T/C,[9],115 % of control
same,T/C,[10],115 % of control
CC1(C)N=C(N)N=C(N)N1c1cccc(Br)c1,T/C,"dose: 2.7 mg/kg/injection, schedule: Q04DX003 (ip), vehicle: saline",100 % of control
same,T/C,"dose: 4.0 mg/kg/injection, schedule: Q04DX003 (ip), vehicle: saline",90 % of control
same,T/C,[1],168 % of control
same,T/C,[2],177 % of control and 179 % of control
same,T/C,[3],90 % of control
CC1(C)CC2(OC2c2ccccc2)C(C)(O)c2ccccc21 (centres undefined),T/C,[11],95 % of control
same,T/C,"dose: 100.0 mg/kg/injection, schedule: Q04DX003 (ip), vehicle: Klucel (hydroxypropylcellulose) (HPC)",110 % of control
same,T/C,[12],90 % of control
same,T/C,"dose: 200.0 mg/kg/injection, schedule: Q04DX003 (ip), vehicle: Klucel (hydroxypropylcellulose) (HPC)",105 % of control
same,T/C,"dose: 400.0 mg/kg/injection, schedule: Q01DX009 (ip), vehicle: Klucel (hydroxypropylcellulose) (HPC)",100 % of control
same,T/C,"dose: 400.0 mg/kg/injection, schedule: Q04DX003 (ip), vehicle: Klucel (hydroxypropylcellulose) (HPC)",105 % of control
CC(=O)Nc1ccc(S(=O)(=O)c2ccc([N+](=O)[O-])cc2)cc1,T/C,[13],101 % of control
same,T/C,[8],106 % of control
same,T/C,[9],105 % of control
same,T/C,[10],99 % of control
c1ccc2c(c1)C1CCC2c2ccccc21,T/C,[13],100 % of control
same,T/C,[8],100 % of control
same,T/C,[9],88 % of control and 100 % of control
same,T/C,[10],100 % of control
CC(=O)OC/C=C(C)/C=C/C=C(C)/C=C/C1=C(C)CCCC1(C)C,T/C,"dose: 100.0 mg/kg/injection, schedule: Q01DX010 (ip), vehicle: acetone",107 % of control
same,T/C,"dose: 200.0 mg/kg/injection, schedule: Q01DX010 (ip), vehicle: acetone",89 % of control
same,T/C,"dose: 800.0 mg/kg/injection, schedule: Q01DX010 (ip), vehicle: acetone",121 % of control
Cc1cccc(N2CCN(CCC#N)CC2)c1,T/C,"dose: 25.0 mg/kg/injection, schedule: Q01DX009 (ip), vehicle: saline with Tween-80",91 % of control
same,T/C,[5],95 % of control
same,T/C,[6],91 % of control
CCCN=C(N)c1ccc(NC(=O)c2ccc(C(=O)Nc3ccc(C(N)=NCCC)cc3)cc2)cc1,T/C,"dose: 0.5 mg/kg/injection, schedule: Q04DX003 (ip), vehicle: saline with Tween-80",115 % of control
same,T/C,"dose: 1.0 mg/kg/injection, schedule: Q04DX003 (ip), vehicle: saline with Tween-80",120 % of control
same,T/C,"dose: 14.0 mg/kg/injection, schedule: Q04DX003 (ip), vehicle: saline with Tween-80",163 % of control
same,T/C,"dose: 21.0 mg/kg/injection, schedule: Q04DX003 (ip), vehicle: saline with Tween-80",163 % of control
same,T/C,"dose: 33.0 mg/kg/injection, schedule: Q04DX003 (ip), vehicle: saline with Tween-80",159 % of control and 200 % of control
same,T/C,[13],172 % of control and 204 % of control
same,T/C,"dose: 75.0 mg/kg/injection, schedule: Q04DX003 (ip), vehicle: saline with Tween-80",159 % of control
same,T/C,[8],190 % of control
same,T/C,[9],118 % of control
O=c1[nH]c2cc(Cl)c(Cl)cc2o1,T/C,[14],115 % of control
same,T/C,[5],104 % of control
same,T/C,[11],115 % of control
same,T/C,[6],100 % of control
same,T/C,[8],100 % of control
same,T/C,[12],110 % of control
same,T/C,[7],104 % of control
same,T/C,[9],95 % of control
CC(=O)n1nc(Cl)c2ccc([N+](=O)[O-])cc21,T/C,[5],97 % of control
same,T/C,[6],100 % of control
same,T/C,[7],100 % of control
NC1CCC1N (centres undefined),T/C,"dose: 50.0 mg/kg/injection, schedule: Q01DX001 (ip), vehicle: saline",110 % of control
same,T/C,[4],105 % of control
same,T/C,"dose: 200.0 mg/kg/injection, schedule: Q01DX001 (ip), vehicle: saline",105 % of control
Cn1c(C(Cl)Cl)nc2ccccc2c1=O,T/C,"dose: 12.5 mg/kg/injection, schedule: Q01DX009 (ip), vehicle: Klucel (hydroxypropylcellulose) (HPC)",100 % of control
same,T/C,"dose: 25.0 mg/kg/injection, schedule: Q01DX009 (ip), vehicle: Klucel (hydroxypropylcellulose) (HPC)",100 % of control
same,T/C,[14],95 % of control
same,T/C,"dose: 75.0 mg/kg/injection, schedule: Q01DX009 (ip), vehicle: Klucel (hydroxypropylcellulose) (HPC)",100 % of control
same,T/C,"dose: 115.0 mg/kg/injection, schedule: Q01DX009 (ip), vehicle: Klucel (hydroxypropylcellulose) (HPC)",114 % of control
same,T/C,"dose: 170.0 mg/kg/injection, schedule: Q01DX009 (ip), vehicle: Klucel (hydroxypropylcellulose) (HPC)",95 % of control
